Reference: ChEMBL document CHEMBL5241112, “Insights into the recent progress in the medicinal chemistry of pyranopyrimidine analogs” (RSC Med Chem, 2022)
≈ marks a conversion by molar mass, not a printed value.

Tests used:
[1] = test system: Klebsiella pneumoniae; assay: Antibacterial activity against Klebsiella pneumoniae assessed as diameter of inhibition zone at 100 ug/ml by disc diffusion method; assay type: functional; conditions: read-out: DIZ
[2] = test system: Aspergillus flavus; assay: Antifungal activity against Aspergillus flavus assessed as diameter of inhibition zone at 100 ug/ml by agar disc diffusion method; assay type: functional; conditions: read-out: DIZ
[3] = test system: Candida albicans; assay: Antifungal activity against Candida albicans assessed as diameter of inhibition zone at 100 ug/ml by agar disc diffusion method; assay type: functional; conditions: read-out: DIZ
[4] = test system: Staphylococcus aureus; assay: Antibacterial activity against Staphylococcus aureus assessed as diameter of inhibition zone at 100 ug/ml by disc diffusion method; assay type: functional; conditions: read-out: DIZ
[5] = test system: Bacillus subtilis; assay: Antibacterial activity against Bacillus subtilis assessed as diameter of inhibition zone at 100 ug/ml by disc diffusion method; assay type: functional; conditions: read-out: DIZ
[6] = test system: Escherichia coli; assay: Antibacterial activity against Escherichia coli assessed as diameter of inhibition zone at 100 ug/ml by disc diffusion method; assay type: functional; conditions: read-out: DIZ
[7] = target: Alpha-glucosidase (Saccharomyces cerevisiae S288c, UniProt P53341+P38158+P07265); assay: Inhibition of Saccharomyces cerevisiae alpha-glucosidase preincubated for 5 mins followed by PNP-GLUC substrate addition and measured after 20 mins by spectroscopic analysis; assay type: protein assay
[8] = test system: Escherichia coli; assay: Antibacterial activity against Escherichia coli MTCC 723 assessed as diameter of inhibition zone at 0.1 mg/ml incubated for 24 hrs by agar well diffusion method; assay type: functional; conditions: read-out: DIZ
[9] = test system: Pseudomonas aeruginosa; assay: Antibacterial activity against Pseudomonas aeruginosa MTCC 741 assessed as diameter of inhibition zone at 0.1 mg/ml incubated for 24 hrs by agar well diffusion method; assay type: functional; conditions: read-out: DIZ
[10] = target: Albumin (Bos taurus, UniProt P02769); assay: […] bovine serum albumin denaturation incubated for 23 mins by UV-Visible spectrophotometry
Chain of Albumin (P02769 whole entry): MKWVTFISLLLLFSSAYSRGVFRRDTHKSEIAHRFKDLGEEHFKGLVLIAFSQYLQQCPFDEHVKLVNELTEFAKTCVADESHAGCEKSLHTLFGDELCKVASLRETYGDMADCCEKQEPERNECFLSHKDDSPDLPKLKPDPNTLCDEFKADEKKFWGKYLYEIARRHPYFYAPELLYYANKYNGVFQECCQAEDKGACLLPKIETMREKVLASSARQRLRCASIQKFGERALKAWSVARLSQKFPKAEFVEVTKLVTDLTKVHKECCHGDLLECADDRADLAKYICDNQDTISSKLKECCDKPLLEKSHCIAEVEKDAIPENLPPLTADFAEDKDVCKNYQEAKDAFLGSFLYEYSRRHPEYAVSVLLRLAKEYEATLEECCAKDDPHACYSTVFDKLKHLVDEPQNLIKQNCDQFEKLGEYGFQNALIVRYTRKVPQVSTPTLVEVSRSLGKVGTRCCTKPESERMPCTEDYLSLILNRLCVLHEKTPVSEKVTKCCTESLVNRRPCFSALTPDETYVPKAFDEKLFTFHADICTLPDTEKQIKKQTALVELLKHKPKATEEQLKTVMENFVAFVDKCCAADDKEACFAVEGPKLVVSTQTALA

[11] = Inhibition of porcine pancreatic alpha-amylase preincubated for 10 mins followed by substrate starch addition and measured after 10 mins by colorimetric analysis; design: species or system Sus scrofa
[12] = test system: Pseudomonas aeruginosa; assay: Antimicrobial activity against Pseudomonas aeruginosa assessed as diameter of inhibition zone at 5.0 mg/ml incubated for 12 hrs by agar disk diffusion method; assay type: functional; conditions: read-out: DIZ
[13] = test system: Escherichia coli; assay: Antimicrobial activity against Escherichia coli assessed as diameter of inhibition zone at 5.0 mg/ml incubated for 12 hrs by agar disk diffusion method; assay type: functional; conditions: read-out: DIZ
[14] = test system: Staphylococcus aureus; assay: Antimicrobial activity against Staphylococcus aureus assessed as diameter of inhibition zone at 2.5 mg/ml incubated for 12 hrs by agar disk diffusion method; assay type: functional; conditions: read-out: DIZ
[15] = test system: Escherichia coli; assay: Antimicrobial activity against Escherichia coli assessed as diameter of inhibition zone at 2.5 mg/ml incubated for 12 hrs by agar disk diffusion method; assay type: functional; conditions: read-out: DIZ
[16] = test system: Bacillus cereus; assay: Antimicrobial activity against Bacillus cereus assessed as diameter of inhibition zone at 1.2 mg/ml incubated for 12 hrs by agar disk diffusion method; assay type: functional; conditions: read-out: DIZ
[17] = test system: Pseudomonas aeruginosa; assay: Antimicrobial activity against Pseudomonas aeruginosa assessed as diameter of inhibition zone at 1.2 mg/ml incubated for 12 hrs by agar disk diffusion method; assay type: functional; conditions: read-out: DIZ
[18] = test system: Pseudomonas aeruginosa; assay: Antimicrobial activity against Pseudomonas aeruginosa assessed as diameter of inhibition zone at 2.5 mg/ml incubated for 12 hrs by agar disk diffusion method; assay type: functional; conditions: read-out: DIZ
[19] = test system: Bacillus cereus; assay: Antimicrobial activity against Bacillus cereus assessed as diameter of inhibition zone at 2.5 mg/ml incubated for 12 hrs by agar disk diffusion method; assay type: functional; conditions: read-out: DIZ
[20] = test system: Bacillus cereus; assay: Antimicrobial activity against Bacillus cereus assessed as diameter of inhibition zone at 5.0 mg/ml incubated for 12 hrs by agar disk diffusion method; assay type: functional; conditions: read-out: DIZ
[21] = test system: Staphylococcus aureus; assay: Antimicrobial activity against Staphylococcus aureus assessed as diameter of inhibition zone at 5.0 mg/ml incubated for 12 hrs by agar disk diffusion method; assay type: functional; conditions: read-out: DIZ
[22] = test system: Staphylococcus aureus; assay: Antimicrobial activity against Staphylococcus aureus assessed as diameter of inhibition zone at 1.2 mg/ml incubated for 12 hrs by agar disk diffusion method; assay type: functional; conditions: read-out: DIZ
[23] = test system: Klebsiella pneumoniae; assay: Antibacterial activity against Klebsiella pneumoniae MTCC 109 assessed as diameter of inhibition zone at 0.1 mg/ml incubated for 24 hrs by agar well diffusion method; assay type: functional; conditions: read-out: DIZ
[24] = test system: Escherichia coli; assay: Antimicrobial activity against Escherichia coli ATCC 25922 assessed as diameter of inhibition zone at 20 mg/ml incubated for 24 hrs by disk diffusion method; assay type: functional; conditions: read-out: DIZ
[25] = test system: Pseudomonas aeruginosa; assay: Antimicrobial activity against Pseudomonas aeruginosa ATCC 27853 assessed as diameter of inhibition zone at 20 mg/ml incubated for 24 hrs by disk diffusion method; assay type: functional; conditions: read-out: DIZ
[26] = test system: Klebsiella pneumoniae; assay: Antimicrobial activity against Klebsiella pneumoniae ATCC 15380 assessed as diameter of inhibition zone at 20 mg/ml incubated for 24 hrs by disk diffusion method; assay type: functional; conditions: read-out: DIZ
[27] = test system: Escherichia coli; assay: Antibacterial activity against Escherichia coli NCIM 2066 assessed as diameter of inhibition zone incubated for 24 hrs by agar well diffusion method; assay type: functional
[28] = test system: Staphylococcus aureus; assay: Antibacterial activity against Staphylococcus aureus NCIM 2654 assessed as diameter of inhibition zone incubated for 24 hrs by agar well diffusion method; assay type: functional
[29] = test system: Candida albicans; assay: Antifungal activity against Candida albicans assessed as diameter of inhibition zone incubated for 48 hrs by agar well diffusion method; assay type: functional
[30] = test system: Staphylococcus aureus; assay: Antibacterial activity against Staphylococcus aureus assessed as inhibition of bacterial growth; assay type: functional
[31] = test system: Aspergillus niger; assay: Antifungal activity against Aspergillus niger assessed as inhibition of fungal growth; assay type: functional
[32] = test system: Aspergillus flavus; assay: Antifungal activity against Aspergillus flavus assessed as inhibition of fungal growth; assay type: functional
[33] = test system: Pseudomonas aeruginosa; assay: Antibacterial activity against Pseudomonas aeruginosa assessed as inhibition of bacterial growth; assay type: functional
[34] = test system: Escherichia coli; assay: Antibacterial activity against Escherichia coli assessed as inhibition of bacterial growth; assay type: functional
[35] = test system: Candida albicans; assay: Antifungal activity against Candida albicans assessed as inhibition of fungal growth; assay type: functional
[36] = test system: HCT-116; assay: Anticancer activity against human HCT-116 cells assessed as reduction in cell viability incubated for 96 hrs by MTT assay; assay type: functional, cell-based; conditions: HCT-116, 96 h
[37] = test system: Salmonella typhimurium; assay: Antimicrobial activity against Salmonella typhimurium ATCC 19430 assessed as diameter of inhibition zone at 20 mg/ml incubated for 24 hrs by disk diffusion method; assay type: functional, Salmonella enterica subsp. enterica serovar Typhimurium; conditions: Salmonella enterica, read-out: DIZ
[38] = test system: Staphylococcus aureus; assay: Antibacterial activity against Staphylococcus aureus MTCC 87 assessed as diameter of inhibition zone at 0.1 mg/ml incubated for 24 hrs by agar well diffusion method; assay type: functional; conditions: read-out: DIZ
[39] = test system: Aspergillus fumigatus; assay: microbe, parasite or virus in culture; assay type: functional; conditions: ATCC204305, dose 50 mg/ml, time 24 hrs, read-out: DIZ
[40] = test system: Escherichia coli; assay: Antibacterial activity against Escherichia coli ATCC 25922 assessed as diameter of inhibition zone at 50 mg/ml incubated for 24 hrs by paper disk diffusion method; assay type: functional; conditions: read-out: DIZ
[41] = test system: Staphylococcus aureus; assay: Antibacterial activity against Staphylococcus aureus ATCC6538-P assessed as diameter of inhibition zone at 50 mg/ml incubated for 24 hrs by paper disk diffusion method; assay type: functional; conditions: read-out: DIZ

In the case of CCOC(=O)C1=C(C)Oc2nc(C)n(Cc3cn(-c4ccc(Cl)cc4)nn3)c(=O)c2C1c1ccc([N+](=O)[O-])cc1 (stereo not given), the zone of inhibition at 100 µg/mL [1] is reported as 16.5 mm, the zone of inhibition at 100 µg/mL [2] is reported as 17.5 mm and the zone of inhibition at 100 µg/mL [3] is reported as 17.5 mm. It also gave a zone of inhibition at 100 µg/mL [4] of 15 mm, a zone of inhibition at 100 µg/mL [5] of 13 mm and a zone of inhibition at 100 µg/mL [6] of 17 mm.
For CCOC(=O)C1=C(C)Oc2nc(C)n(Cc3cn(-c4cccc(F)c4)nn3)c(=O)c2C1c1ccc([N+](=O)[O-])cc1 (stereo not given), the zone of inhibition at 100 µg/mL [1] was 14.5 mm, the zone of inhibition at 100 µg/mL [2] was 14.5 mm and the zone of inhibition at 100 µg/mL [4] was 14.5 mm. For the same molecule, the zone of inhibition at 100 µg/mL [6] was 15.5 mm.
Molecule CC(=O)N1CCN(c2ccc(OCC3COC(Cn4ccnc4)(c4ccc(Cl)cc4Cl)O3)cc2)CC1 (stereo not given) [KETOCONAZOLE] has a zone of inhibition at 100 µg/mL [2] of 18.5 mm and a zone of inhibition at 100 µg/mL [3] of 20.5 mm.
Work on O=C(C1=C(c2ccccc2O)Oc2[nH]c(=S)[nH]c(=O)c2C1c1ccc(Cl)cc1)N1CCCCC1 (stereo not given) yielded an IC50 [7] of 4021 µM, a zone of inhibition at 100 µg/mL [8] of 14.1 mm and a zone of inhibition at 100 µg/mL [9] of 13.1 mm. The IC50 [10] was 26.7 µM and the IC50 [11] was 9.9 µM.
N#CC1=C(N)Oc2[nH]c(=O)[nH]c(=O)c2C1c1ccncc1 (stereo not given) gave a zone of inhibition at 5000 µg/mL [12] of 19 mm, a zone of inhibition at 5000 µg/mL [13] of 17 mm and a zone of inhibition at 2500 µg/mL [14] of 10 mm. For the same molecule, the zone of inhibition at 2500 µg/mL [15] was 13 mm, the zone of inhibition at 1200 µg/mL [16] was 10 mm and the zone of inhibition at 1200 µg/mL [17] was 12 mm. The zone of inhibition at 2500 µg/mL [18] was 16 mm, the zone of inhibition at 2500 µg/mL [19] was 15 mm and the zone of inhibition at 5000 µg/mL [20] was 19 mm. For the same molecule, the zone of inhibition at 5000 µg/mL [21] was 14 mm and the zone of inhibition at 1200 µg/mL [22] was 8 mm.
For O=C(C1=C(c2ccccc2O)Oc2[nH]c(=S)[nH]c(=O)c2C1c1ccccc1O)N1CCCCC1 (stereo not given), the zone of inhibition at 100 µg/mL [23] was 11.6 mm, the IC50 [7] was 6197 µM and the zone of inhibition at 100 µg/mL [8] was 12.2 mm. For the same molecule, the zone of inhibition at 100 µg/mL [9] was 10.1 mm, the IC50 [10] was 26 µM and the IC50 [11] was 20.1 µM.
With Cc1ccc(C2C(C#N)=C(N)Oc3[nH]c(=O)[nH]c(=O)c32)s1 (stereo not given) the zone of inhibition at 20000 µg/mL [24] was 14 mm, the zone of inhibition at 20000 µg/mL [25] was 18 mm and the zone of inhibition at 20000 µg/mL [26] was 16 mm.
For COc1ccc(C2c3c(C)n[nH]c3Oc3[nH]c(=O)[nH]c(=O)c32)cc1 (stereo not given), the “diameter of the inhibition zone (DIZ)” value [27] was 19 mm, the “diameter of the inhibition zone (DIZ)” value [28] was 27 mm and the “diameter of the inhibition zone (DIZ)” value [29] was 27 mm.
Work on N#CC1=C(N)Oc2[nH]c(=O)[nH]c(=O)c2C1c1ccccc1O (stereo not given) yielded an MIC [30] of 25 µg/mL (≈ 83.8 µM), an MIC [31] of 162 µg/mL (≈ 545 µM) and an MIC [32] of 150 µg/mL (≈ 503 µM). The MIC [33] was 25 µg/mL (≈ 83.8 µM), the MIC [34] was 75 µg/mL (≈ 251 µM) and the MIC [35] was 125 µg/mL (≈ 419 µM).
N#CC1=C(N)Oc2[nH]c(=O)[nH]c(=O)c2C1c1cccs1 (stereo not given) showed an IC50 [36] of 2.76 µM, an MIC [31] of 162 µg/mL (≈ 564 µM) and a zone of inhibition at 20000 µg/mL [24] of 14 mm. The MIC [32] was 150 µg/mL (≈ 520 µM), the zone of inhibition at 20000 µg/mL [26] was 16 mm and the zone of inhibition at 20000 µg/mL [37] was 20 mm. For the same molecule, the MIC [35] was 125 µg/mL (≈ 434 µM).
O=C(C1=C(c2ccccc2O)Oc2[nH]c(=S)[nH]c(=O)c2C1c1ccc(Br)cc1)N1CCCCC1 (stereo not given) gave an IC50 [7] of 6855 µM, a zone of inhibition at 100 µg/mL [38] of 9.1 mm and an IC50 [10] of 23.1 µM. The IC50 [11] was 24.7 µM.
Work on O=c1[nH]cnc2c1C(c1ccc(Cl)cc1)C=C(c1cc3ccccc3oc1=O)O2 (stereo not given) yielded a zone of inhibition at 50000 µg/mL [39] of 10 mm, a zone of inhibition at 50000 µg/mL [40] of 10 mm and a zone of inhibition at 50000 µg/mL [41] of 10 mm.
